We go through three molecules from patent US20220031680A1, “Donecopride As Neuroprotective Agent In the Treatment of Neurodegenerative Diseases” (priority 2018, published 2022).

In this test the test system is rat primary hippocampal neurons injured with Aβ 1-42. The test is described as follows: Number of synapses (PSD95/SYN overlap) in primary hippocampal neurons injured with Aβ1-42. The class given is cell-based. Conditions: for Number of synapses (% of control): Aβ 1-42 (20 μM) in Table 5, 24 h; for number of synapses normalized by the number of neurons (formation of new synapses): Aβ 1-42 injured hippocampal neurons. How it is done:
The hippocampal neurons were exposed with Aβ solutions (see below) after 17 days of culture. The Aβ1-42 preparation was done following the procedure described by Callizot et al. (2013) J. Neurosci. Res. 91706-716. Briefly, Aβ1-42 peptide was dissolved in the defined culture medium mentioned above, at an initial concentration of 40 μM. This solution was gently agitated for 3 days at 37° C. in the dark and immediately used after being properly diluted in culture medium to the concentrations used (20 μM (plate 1) or 2.5 μM (plate 2) corresponding to 2 μM or 0.25 μM of oligomers (AβO) respectively).
Donecopride fumarate was solved in culture medium and preincubated 1 h before Aβ application. Aβ1-42 preparation was added to a final concentration of 20 or 2.5 μM (=2 μM or 0.25 μM of AβO, evaluated by automatic Western Blot) diluted in control medium in presence of Donecopride.
24 hours after intoxication, the hippocampal neurons were fixed by a cold solution of ethanol (95%) and acetic acid (5%) for 5 min at −20° C. After permeabilization with 0.1% of saponin, cells were incubated for 2 h with:
a) mouse monoclonal antibody anti post synaptic density 95 kDa (PSD95) at a dilution of 1/100 in PBS containing 1% fetal calf serum and 0.1% of saponin.
b) Rabbit polyclonal antibody anti-synaptophysin (SYN) at the dilution of 1/100 in PBS containing 1% fetal calf serum and 0.1% of saponin.
For each condition, 40 pictures per well were taken using ImageXpress (Molecular Devices) with 40× magnification. All images were taken with the same acquisition parameters.
Synapses evaluation was performed automatically by using Custom module editor (Molecular Devices).
The following endpoints were assessed: • Total number of synapses (overlapping between PSD95/SYN).
To assess the formation of synapses, the distribution of PSD-95, a post-synaptic marker, and synaptophysin, a pre-synaptic marker, was studied. A structure positive for both PD-95 and synaptophysin staining was considered as a synapse.
Injury: The hippocampal neurons were exposed with Aβ solutions (see below) after 17 days of culture. The Aβ1-42 preparation was done following the procedure described by Callizot et al. (2013) J. Neurosci. Res. 91:706-716. The batch number of the Aβ1-42 used in this study contains 10% of oligomers (quantification by WB as performed in Combes et al. (2015) J. Neurosci. Res. 93:633-643). Briefly, Aβ1-42 peptide was dissolved in the defined culture medium mentioned above, at an initial concentration of 40 μmol/1. This solution was gently agitated for 3 days at 37° C. in the dark and immediately used after being properly diluted in culture medium to the concentrations used (20 μmol/l or 2.5 μmol/l corresponding to 2 μmol/l or 0.25 μmol/l of oligomers (AβO) respectively). Aβ1-42 preparation was added to a final concentration of 20 or 2.5 μmol/l (respectively 2 μmol/l or 0.25 μmol/l of AβO, determined by automatic WB) diluted in control medium in presence of the compounds.
Immunostaining: PSD95 and SYN—After fixation and permeabilization, cells were incubated for 2 hours with: • mouse monoclonal antibody anti post synaptic density 95 kDa (PSD95) at dilution of 1/200 in PBS containing 1% fetal calf serum and 0.1% saponin; • rabbit polyclonal antibody anti-synaptophysin (SYN) at the dilution of 1/100 in PBS containing 1% fetal calf serum and 0.1% saponin.
For each condition, 40 pictures per well were taken using ImageXpress (Molecular Devices) with 40× magnification. All images were taken with the same conditions. Synapses evaluation were performed automatically by using Custom Module Editor® (Molecular Devices). The following endpoints were assessed: • Number of synapses (overlapping between PSD95/SYN)

Marks after values point to notes of the source that are not given here. Some results are limits rather than exact numbers.

As to `COc1cc2c(cc1OC)C(=O)C(CC1CCN(Cc3ccccc3)CC1)C2` (centres unmarked) [Donepezil, reference compound], the “Number of synapses (% of control)” value (1 μM) is recorded as 88* % of control. Also, under “Donepezil group (1 μM)”, the “number of synapses normalized by the number of neurons (formation of new synapses)” value was “no effect”.

As for `COc1cc(N)c(F)cc1C(=O)CCC1CCN(CC2CCCCCC2)CC1` [MR36014], the “concentration up to which the effect on synapses is significant” value (Aβ1-42 injured hippocampal neurons, Example 5 (FIG. 12)) is at most 50 µM.

Consider `COc1cc(N)c(Cl)cc1C(=O)CCC1CCN(CC2CCCCC2)CC1` [Donecopride], for which the “Number of synapses (% of control)” value is recorded as 69 % of control (1 nM); 83* % of control (5 nM); 87* % of control (10 nM); 91* % of control (50 nM); 93* % of control (100 nM); 94* % of control (500 nM). Moreover, the “Number of synapses (% of control)” value (1 μM) was 85* % of control. Also, the “number of synapses normalized by the number of neurons (formation of new synapses)” value (500 nM) is “significantly promoted the formation of new synapses”.
